From patent publication US4083994A, “Choleretics” (Hisamitsu Pharmaceutical Co., Inc., priority 1975, dated 1978)

Key:
[1] = test system: sleeping time induced by hexobarbital; experiment: Effects on the sleeping time induced by hexobarbital (metabolism function of the liver); format: in vivo, male rats of Wistar strain; settings: rats, 250 mg/kg oral once daily for a week; hexobarbital sodium 100 mg/kg i.p.; control 17.1 ± 0.9
Experimental: About 500 mg of the test drugs were weighed accurately and suspended in 2 ml of 5% gum arabic aqueous solution. Ten male rats of Wistar strain were used per group and given orally the test drugs prepared above in a volume of 0.1 ml/100 g body weight (equivalent to 250 mg/kg), once daily (at 8.30-9.00 a.m.), for a week. The animals were fasted overnight after the last administration of the test drugs. Subsequently, 10% hexobarbital sodium aqueous solution was injected intraperitoneally in a volume of 0.1 ml (equivalent to 100 mg/kg) and the sleeping time was measured. The animals were regarded as sleeping when the loss of righting reflex persist for more than 30 seconds.

[2] = Acute toxicity test in mice; settings: mouse, in vivo, oral, parentheses: 95% confidence limit
Experimental: (§1) The test drugs were suspended in 5% gum arabic aqueous solution to make 50 mg/ml, and given orally male mice of ddY strain weighing 18-22 g and male rats of Wistar strain weighing 95-120 g. The LD50 values were calculated from the mortality of the animals that ensued during the 72 hours following the drug administration

[3] = test system: bile secretion; experiment: Bile secretion test in rats; format: in vivo, male Wistar rats; settings: oral; for Bile volume secreted after administration: rat, volume in 1 h before administration = 100%; for Volume of bile secreted relative to one hour before administration: rats, 250 mg/kg
Experimental: Male Wistar rats weighing 200-210 g were fasted overnight and laparotomized under urethane anesthesia(Subcutaneous injection at a dose of 1.5 g/kg). A polyethylene tube was inserted into the common bile duct. The bile was collected for one hour from 30 minutes after the operation. Subsequently, the animals were given orally the test drugs, each 50 mg of which was suspended in 1 ml of 5% gum arabic aqueous solution. The bile was collected for 5 hours after the drug administration. The volume of the bile secreted at hourly intervals after the drug administration was expressed in %, defining the volume secreted for one hour before the drug administration as 100%, as shown in Table 1.
About 500 mg of p-menth-1-ene-8,9-diol were weighed accurately, and suspended in 10 ml of 5% gum arabic aqueous solution. […] Male rats of Wistar strain weighing 200 g were fasted overnight, anesthetized by subcutanous injection of 0.3 g of urethane and laparotomized. A polyethylene tube was inserted into the common bile duct. The bile was collected for one hour from 30 minutes after the operation. […]
About 500 mg of 9-acetoxy-p-menth-1-en-8-ol was weighed accurately and suspended in 10ml of 5% gum arabic aqueous solution. […] Male rats of Wistar strain weighing about 210 g were fasted overnight and anesthetized by subcutaneous injection of 0.32 g of urethane and then laparotomized. A polyethylene tube was inserted into the common bile duct, and the bile secreted through the duct was collected for one hour from 30 minutes after the operation. Subsequently, the choleretic of the present invention was administered orally in a volume of 1.05 ml (250 mg/kg).

[4] = test system: bile secretion; experiment: Bile secretion test in dogs; format: in vivo, male mongrel dogs; settings: dog, into duodenum, 310 mg/kg, volume in 1 h before administration = 100%
Experimental: Male mongrel dogs weighing approximately 8 kg were anesthetized with intravenous injection of […] of pentobarbital and further with subcutaneous injection of urethane at a dose of 1.0 g/kg and laparotomized. One canula was inserted into the common bile duct and directed to the liver for collection of the bile, and the other canula was inserted into the duodenum for the drug administration. The cholecystic duct was ligated and the gallbladder bile was aspirated with an injection syringe. The operation was finished by suture of the peritoneum. The bile was collected for one hour from 30 minutes after the operation. The animals were given the test drugs, each 50 mg of which was suspended in 1 ml of 5% gum arabic aqueous solution, through the canula for the drug administration. The bile was collected at hourly intervals for 6 hours after the drug administration. Defining the volume of the bile secreted for one hour before the drug administration as 100%, the volume secreted at hourly intervals after the drug administration was expressed in %, as shown in Table 2.
The mean volume secreted for one hour before the drug administration was 1798 μl.
This suspension was used as a choleretic of the present invention. A male mongrel dog weighing 8.8 kg was fasted overnight and anesthetized by subcutaneous injection of 1.0 mg/kg of urethane and laparotomized. One canula was inserted into the common bile duct and directed to the liver for collection of the bile, and the other canula was also inserted into the duodenum for the drug administration. Subsequently, the cholecystic duct was ligated and the gallbladder bile was aspirated with an injection syringe. The operation was finished after suturing the peritoneum. The bile was collected for one hour from 30 minutes after the operation, and subsequently, 44 ml of the test drug prepared above (250 mg/kg) was given through the canula for the drug administration. The volume of the bile secreted for the first, second and third one hour after the drug administration were 2.2, 2.1 and 1.9 times larger, respectively, than that secreted for one hour before the drug administration.
About 2.5 g of 9-propionyloxy-p-menth-1-en-8-ol was weighed accurately and suspended in 50 ml of 5% gum arabic aqueous solution. This suspension was used as a choleretic of the present invention. A male mongrel dog weighing 7.6 kg was fasted overnight and anesthetized by subcutaneous injection of 1.0 mg/kg of urethane and then laparotomized. One canula was inserted into the common bile duct and directed to the liver for collection of the bile, and the other canula into the duodenum for the drug administration. Subsequently, the cholecystic duct was ligated and the gallbladder bile was aspirated with an injection syringe. The operation was finished by suturing the peritoneum. The bile was collected for one hour from 30 minutes after the operation, and 50 ml (330 mg/kg) of the test drug prepared above was administered through the canula for the drug administration. The volume of the bile secreted for the first, second and third one hour after the drug administration was 3.2, 5.0 and 4.7 times larger, respectively, than that secreted for one hour before the drug administration.

[5] = Acute toxicity test in rats; set-up: species or system male rats of Wistar strain; settings: rat, in vivo, oral, parentheses: 95% confidence limit
Experimental: as §1

With CC(=O)OCC(C)(O)C1CC=C(C)CC1 (stereo not drawn) [9-Acetoxy-p-menth-1-en-8-ol, 9-acetoxy-p-menth-1-en-8-ol] the Sleeping time [1] was 18.1 ± 1.5 min, the LD50 at 72 h [2] was 1000 to 2000 mg/kg and the “Bile volume secreted after administration” value (“Bile volume secreted” below) ([3]; 100 mg/kg, 0-1 hr) was 125%. For the same compound, the “Bile volume secreted” value ([3]; 100 mg/kg, 1-2 hr) was 109%, the “Bile volume secreted” value ([3]; 100 mg/kg, 2-3 hr) was 96% and the “Bile volume secreted” value ([3]; 100 mg/kg, 3-4 hr) was 82%. For the same compound, the “Bile volume secreted” value ([3]; 100 mg/kg, 4-5 hr) was 75%, the “Bile volume secreted” value ([3]; 310 mg/kg, 0-1 hr) was 196% and the “Bile volume secreted” value ([3]; 310 mg/kg, 1-2 hr) was 172%. The “Bile volume secreted” value ([3]; 310 mg/kg, 2-3 hr) was 145%, the “Bile volume secreted” value ([3]; 310 mg/kg, 3-4 hr) was 124% and the “Bile volume secreted” value ([3]; 310 mg/kg, 4-5 hr) was 114%. For the same compound, the “Bile volume secreted” value ([3]; 930 mg/kg, 0-1 hr) was 218%, the “Bile volume secreted” value ([3]; 930 mg/kg, 1-2 hr) was 203% and the “Bile volume secreted” value ([3]; 930 mg/kg, 2-3 hr) was 172%. For the same compound, the “Bile volume secreted” value ([3]; 930 mg/kg, 3-4 hr) was 154%, the “Bile volume secreted” value ([3]; 930 mg/kg, 4-5 hr) was 130% and the “Volume of bile secreted relative to one hour before administration” value ([3]; first hour) was 1.9 times. For the same compound, the “Volume of bile secreted relative to one hour before administration” value ([3]; second hour) was 1.7 times, the “Volume of bile secreted relative to one hour before administration” value ([3]; third hour) was 1.4 times and the “Bile volume secreted” value ([4]; 0-1 hr) was 395%. The “Bile volume secreted” value ([4]; 1-2 hr) was 457%, the “Bile volume secreted” value ([4]; 2-3 hr) was 534% and the “Bile volume secreted” value ([4]; 3-4 hr) was 464%. For the same compound, the “Bile volume secreted” value ([4]; 4-5 hr) was 277%, the “Bile volume secreted” value ([4]; 5-6 hr) was 157% and the LD50 at 72 h [5] was 8300 mg/kg.
